# Results from patent US20260285875A1, “INHIBITORS OF PARG” (858 Therapeutics, Inc., priority 2023, published 2026).
# pIC50: −log10 of the molar value.
# Biological target: T1, cellular PARG (Homo sapiens, UniProt Q86W56)
# T1 construct: endogenous in cells; host or cells: HeLa
# Assay: Nuclear PAR accumulation assay (immunofluorescence high-content imaging, MMS-treated HeLa cells)
# Type: cell-based
# Conditions: 1 hour compound then MMS 50 μg/mL for an additional hour
# Procedure: HeLa cells were plated at 15,000 cells/well in a 96-well plate the day before compound treatment and then treated with varying concentrations of test compound and incubated for 1 hour at 37° C.+5% CO2. Following test compound treatment, methylmethane sulfonate (MMS) was added to a final concentration of 50 μg/mL and the cells were incubated for an additional hour. Following treatment, the cells were fixed with ice cold 95% methanol and the plates sealed and placed at -20° C. for 15 minutes. The cells were then washed once with phosphate buffered saline (PBS) and permeabilized with 0.10% Triton-X 100 for 20 minutes at room temperature. […] The cells were then washed three times with PBS before incubation with a fluorescently conjugated goat anti-mouse antibody (Invitrogen A32723) diluted 1:500 in 5% FBS+0.1% Tween-20+PBS for 1 hour at room temperature. The cells were again washed three times with PBS and the nuclei labeled by incubating with 1 μg/mL DAPI (4′,6-diamidino-2-phenylindole). Nuclear PAR accumulation was evaluated using high-content fluorescence microscopy. Four fields for each well were acquired at 20× magnification resulting in at least 1,000 cells analyzed per well. […] Both the average intensity per nucleus and percent PAR positive cells were quantified. […] Concentration-response-curves and IC50 values were generated using four parameter logistic curve fit software.
# Representative data for exemplary compounds is presented in Table 32, Table 33 and Table 34.
# T1 sequence (Q86W56 whole entry): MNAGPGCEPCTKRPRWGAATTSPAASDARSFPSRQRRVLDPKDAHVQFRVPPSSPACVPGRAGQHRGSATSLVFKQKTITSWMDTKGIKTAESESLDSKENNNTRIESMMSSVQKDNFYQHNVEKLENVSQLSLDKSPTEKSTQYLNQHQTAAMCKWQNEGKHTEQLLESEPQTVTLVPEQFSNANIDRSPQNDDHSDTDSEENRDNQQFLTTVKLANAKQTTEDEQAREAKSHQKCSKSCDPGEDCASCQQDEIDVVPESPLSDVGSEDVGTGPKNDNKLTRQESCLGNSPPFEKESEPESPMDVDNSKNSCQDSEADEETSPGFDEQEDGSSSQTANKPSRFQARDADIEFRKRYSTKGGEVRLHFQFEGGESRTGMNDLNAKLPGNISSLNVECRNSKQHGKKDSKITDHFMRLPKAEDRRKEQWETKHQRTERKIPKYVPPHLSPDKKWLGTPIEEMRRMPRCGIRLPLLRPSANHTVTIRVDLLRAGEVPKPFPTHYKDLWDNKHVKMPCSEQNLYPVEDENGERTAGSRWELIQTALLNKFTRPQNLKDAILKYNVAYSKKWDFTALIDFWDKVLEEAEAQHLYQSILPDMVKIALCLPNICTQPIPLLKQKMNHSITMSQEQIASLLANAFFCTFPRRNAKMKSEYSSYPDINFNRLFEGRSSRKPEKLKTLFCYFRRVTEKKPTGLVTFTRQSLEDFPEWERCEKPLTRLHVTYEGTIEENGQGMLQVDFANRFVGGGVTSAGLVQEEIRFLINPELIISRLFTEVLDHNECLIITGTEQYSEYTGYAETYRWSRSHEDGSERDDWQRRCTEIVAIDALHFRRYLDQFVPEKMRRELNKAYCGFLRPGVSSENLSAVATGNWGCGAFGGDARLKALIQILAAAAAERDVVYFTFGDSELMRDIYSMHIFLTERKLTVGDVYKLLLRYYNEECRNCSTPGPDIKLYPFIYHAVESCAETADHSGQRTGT
row,SMILES,pIC50
1,"C#CC1(C)CN=C2N(Cc3cnn(C)c3)C(=O)c3cc(S(=O)(=O)NC4(C)CC4)ccc3N21 (single isomer, unassigned) [Example 271, 1-ethynyl-1-methyl-4-((1-methyl-1H-pyrazol-4-yl)methyl)-N-(1-methylcyclopropyl)-5-oxo-1,2,4,5-tetrahydroimidazo[1,2-a]quinazoline-7-sulfonamide]",> 7.00
2,"C#CC1(C)CN=C2N(Cc3cnn(C)c3)C(=O)c3cc(S(=O)(=O)NC4(C)CC4)ccc3N21 (single isomer, unassigned) [Example 272, 1-ethynyl-1-methyl-4-((1-methyl-1H-pyrazol-4-yl)methyl)-N-(1-methylcyclopropyl)-5-oxo-1,2,4,5-tetrahydroimidazo[1,2-a]quinazoline-7-sulfonamide]",> 7.00
3,"C[C@@H]1CN=C2N(Cc3cnn(C)c3)C(=O)c3cc(S(=O)(=O)NC4(C)CC4)cc(C4CC4)c3N21 [Example 1, (R)-9-cyclopropyl-1-methyl-4-((1-methyl-1H-pyrazol-4-yl)methyl)-N-(1-methylcyclopropyl)-5-oxo-1,2,4,5-tetrahydroimidazo[1,2-a]quinazoline-7-sulfonamide]",> 7.00
4,"C[C@@H]1CN=C2N(Cc3cnn(C)c3)C(=O)c3cc(S(=O)(=O)NC4(C)CC4)cc(N4CCC4)c3N21 [Example 2, (R)-9-(azetidin-1-yl)-1-methyl-4-((1-methyl-1H-pyrazol-4-yl)methyl)-N-(1-methylcyclopropyl)-5-oxo-1,2,4,5-tetrahydroimidazo[1,2-a]quinazoline-7-sulfonamide]",> 7.00
5,"Cn1cc(CN2C(=O)c3cc(S(=O)(=O)NC4(C)CC4)cc(Br)c3N3CC(C)(C)N=C23)cn1 [Example 3, 9-bromo-2,2-dimethyl-4-((1-methyl-1H-pyrazol-4-yl)methyl)-N-(1-methylcyclopropyl)-5-oxo-1,2,4,5-tetrahydroimidazo[1,2-a]quinazoline-7-sulfonamide]",6.00 to 7.00
6,"CN1CC=C(c2cc(S(=O)(=O)NC3(C)CC3)cc3c2N2CC(C)(C)N=C2N(Cc2cnn(C)c2)C3=O)CC1 [Example 4, 2,2-dimethyl-9-(1-methyl-1,2,3,6-tetrahydropyridin-4-yl)-4-((1-methyl-1H-pyrazol-4-yl)methyl)-N-(1-methylcyclopropyl)-5-oxo-1,2,4,5-tetrahydroimidazo[1,2-a]quinazoline-7-sulfonamide]",> 7.00
7,"CCc1noc(C)c1CN1C(=O)c2cc(S(=O)(=O)NC3(C)CC3)ccc2N2C1=NC[C@H]2C [Example 5, (R)-4-((3-ethyl-5-methylisoxazol-4-yl)methyl)-1-methyl-N-(1-methylcyclopropyl)-5-oxo-1,2,4,5-tetrahydroimidazo[1,2-a]quinazoline-7-sulfonamide]",> 7.00
8,"C[C@@H]1CN=C2N(Cc3cnn(C)c3)C(=O)c3cc(S(=O)(=O)NC4(C)CC4)cc(-c4ccc(F)cn4)c3N21 [Example 6, (R)-9-(5-fluoropyridin-2-yl)-1-methyl-4-((1-methyl-1H-pyrazol-4-yl)methyl)-N-(1-methylcyclopropyl)-5-oxo-1,2,4,5-tetrahydroimidazo[1,2-a]quinazoline-7-sulfonamide]",> 7.00
9,"COCc1nocc1CN1C(=O)c2cc(S(=O)(=O)NC3(C)CC3)ccc2N2C1=NC[C@H]2C [Example 7, (R)-4-((3-(methoxymethyl)isoxazol-4-yl)methyl)-1-methyl-N-(1-methylcyclopropyl)-5-oxo-1,2,4,5-tetrahydroimidazo[1,2-a]quinazoline-7-sulfonamide]",6.00 to 7.00
10,"Cc1noc(C2CC2)c1CN1C(=O)c2cc(S(=O)(=O)NC3(C)CC3)ccc2N2C1=NC[C@H]2C [Example 8, (R)-4-((5-cyclopropyl-3-methylisoxazol-4-yl)methyl)-1-methyl-N-(1-methylcyclopropyl)-5-oxo-1,2,4,5-tetrahydroimidazo[1,2-a]quinazoline-7-sulfonamide]",> 7.00
11,"COc1ccc(CN2C(=O)c3cc(S(=O)(=O)NC4(C)CC4)ccc3N3C2=NC[C@H]3C)cc1 [Example 9, (R)-4-(4-methoxybenzyl)-1-methyl-N-(1-methylcyclopropyl)-5-oxo-1,2,4,5-tetrahydroimidazo[1,2-a]quinazoline-7-sulfonamide]",6.00 to 7.00
12,"C[C@@H]1CN=C2N(Cc3cnn(C)c3)C(=O)c3cc(S(=O)(=O)NC4(C)CC4)cc(N4CCN(C)CC4)c3N21 [Example 10, (R)-1-methyl-4-((1-methyl-1H-pyrazol-4-yl)methyl)-N-(1-methylcyclopropyl)-9-(4-methylpiperazin-1-yl)-5-oxo-1,2,4,5-tetrahy droimidazo[1,2-a]quinazoline-7-sulfonamide]",> 7.00
13,"Cn1cc(CN2C(=O)c3cc(S(=O)(=O)NC4(C)CC4)cc(C4=CCCC4)c3N3CC(C)(C)N=C23)cn1 [Example 11, 9-(cyclopent-1-en-1-yl)-2,2-dimethyl-4-((1-methyl-1H-pyrazol-4-yl)methyl)-N-(1-methylcyclopropyl)-5-oxo-1,2,4,5-tetrahydroimidazo[1,2-a]quinazoline-7-sulfonamide]",> 7.00
14,"Cn1cc(CN2C(=O)c3cc(S(=O)(=O)NC4(C)CC4)cc(C4=CCOCC4)c3N3CC(C)(C)N=C23)cn1 [Example 12, 9-(3,6-dihydro-2H-pyran-4-yl)-2,2-dimethyl-4-((1-methyl-1H-pyrazol-4-yl)methyl)-N-(1-methylcyclopropyl)-5-oxo-1,2,4,5-tetrahydroimidazo[1,2-a]quinazoline-7-sulfonamide]",> 7.00
15,"C[C@@H]1CN=C2N(Cc3cnn(C)c3)C(=O)c3cc(S(=O)(=O)NC4(C)CC4)cc(N4CCNCC4)c3N21 [Example 13, (R)-1-methyl-4-((1-methyl-1H-pyrazol-4-yl)methyl)-N-(1-methylcyclopropyl)-5-oxo-9-(piperazin-1-yl)-1,2,4,5-tetrahydroimidazo[1,2-a]quinazoline-7-sulfonamide]",6.00 to 7.00
16,"[2H]C([2H])(c1cnn(C)c1)N1C(=O)c2cc(S(=O)(=O)NC3(C)CC3)ccc2N2C1=NC[C@H]2C#CC1CC1 [Example 14, (R)-1-(cyclopropylethynyl)-4-((1-methyl-1H-pyrazol-4-yl)methyl-d2)-N-(1-methylcyclopropyl)-5-oxo-1,2,4,5-tetrahydroimidazo[1,2-a]quinazoline-7-sulfonamide]",> 7.00
17,"[2H]C([2H])(c1cnn(C)c1)N1C(=O)c2cc(S(=O)(=O)NC3(C)CC3)cc(Br)c2N2C1=NC[C@H]2C#CC1CC1 [Example 15, (R)-9-bromo-1-(cyclopropylethynyl)-4-((1-methyl-1H-pyrazol-4-yl)methyl-d2)-N-(1-methylcyclopropyl)-5-oxo-1,2,4,5-tetrahydroimidazo[1,2-a]quinazoline-7-sulfonamide]",> 7.00
18,"[2H]C([2H])(c1cnn(C)c1)N1C(=O)c2cc(S(=O)(=O)NC3(C)CC3)cc(Cl)c2N2C1=NC[C@H]2C#CC1CC1 [Example 16, (R)-9-chloro-1-(cyclopropylethynyl)-4-((1-methyl-1H-pyrazol-4-yl)methyl-d2)-N-(1-methylcyclopropyl)-5-oxo-1,2,4,5-tetrahydroimidazo[1,2-a]quinazoline-7-sulfonamide]",> 7.00
19,"Cn1cc(CN2C(=O)c3cc(S(=O)(=O)NC4(C)CC4)cc(-c4ccc(F)cc4)c3N3CC(C)(C)N=C23)cn1 [Example 17, 9-(4-fluorophenyl)-2,2-dimethyl-4-((1-methyl-1H-pyrazol-4-yl)methyl)-N-(1-methylcyclopropyl)-5-oxo-1,2,4,5-tetrahydroimidazo[1,2-a]quinazoline-7-sulfonamide]",> 7.00
20,"Cn1cc(CN2C(=O)c3cc(S(=O)(=O)NC4(C)CC4)cc(Br)c3N3CCN=C23)cn1 [Example 18, 9-bromo-4-((1-methyl-1H-pyrazol-4-yl)methyl)-N-(1-methylcyclopropyl)-5-oxo-1,2,4,5-tetrahydroimidazo[1,2-a]quinazoline-7-sulfonamide]",6.00 to 7.00
21,"CC(C)OC[C@@H]1CN=C2N(Cc3cnn(C)c3)C(=O)c3cc(S(=O)(=O)NC4(C)CC4)ccc3N21 [Example 19, (S)-1-(isopropoxymethyl)-4-((1-methyl-1H-pyrazol-4-yl)methyl)-N-(1-methylcyclopropyl)-5-oxo-1,2,4,5-tetrahydroimidazo[1,2-a]quinazoline-7-sulfonamide]",> 7.00
22,"Cc1cc(F)ccc1-c1cc(S(=O)(=O)NC2(C)CC2)cc2c1N1CCN=C1N(Cc1cnn(C)c1)C2=O [Example 20, 9-(4-fluoro-2-methylphenyl)-4-((1-methyl-1H-pyrazol-4-yl)methyl)-N-(1-methylcyclopropyl)-5-oxo-1,2,4,5-tetrahydroimidazo[1,2-a]quinazoline-7-sulfonamide]",> 7.00
23,"Cn1cc(CN2C(=O)c3cc(S(=O)(=O)NC4(C)CC4)cc(-c4ccc(Cl)cc4)c3N3CCN=C23)cn1 [Example 21, 9-(4-chlorophenyl)-4-((1-methyl-1H-pyrazol-4-yl)methyl)-N-(1-methylcyclopropyl)-5-oxo-1,2,4,5-tetrahydroimidazo[1,2-a]quinazoline-7-sulfonamide]",6.00 to 7.00
24,"C[C@@H]1CN=C2N(Cc3cnn(C)c3)C(=O)c3cc(S(=O)(=O)NC4(C)CC4)cc(C4CCN(C)CC4)c3N21 [Example 22, (R)-1-methyl-4-((1-methyl-1H-pyrazol-4-yl)methyl)-N-(1-methylcyclopropyl)-9-(1-methylpiperidin-4-yl)-5-oxo-1,2,4,5-tetrahydroimidazo[1,2-a]quinazoline-7-sulfonamide]",6.00 to 7.00
